From patent US20050192264A1, “Slow release steroid composition” (priority 2004, published 2005)
In brackets after ≈: the same amount, converted by molar mass. Read-outs that look alike come from different tables or passages of the source.

Experiments:
[1] = Flow-through dissolution of TA samples in 20% methanol in water; type: physicochemical; settings: solvent solution 20% methanol in water
Method: Samples were prepared by dispensing 10 mg of sample into 10 mL of a balanced salt solution comprising 1% Tween 80. The sample in solution was then subjected to vigorous shaking and a number of rapid expulsions through a 22 gauge needle. 2 mL of this suspension was then filtered through a […] Durapore membrane filter which retained essentially all of the particles. The filter is then rinsed with 2 mL water.
This method of sample preparation avoids the problem of particles formed of large agglomerations of crystals which appear to dissolve as large crystals and therefore bias results.
Dissolution was performed using a flow through system that pumps a degassed solvent solution of 20% methanol in water through the dissolution chamber at around 11 mL per minute. […] The combination of flow rate and solvent solution dissolves the TA crystals at a rate that enables a flow-through cell to record absorbance values in the acceptable range for virtually all of the 30 minute run time and for the experiment to be completed in a reasonable period. […]
Approximately 2 mg of sample was prepared on a filter as outlined above. […] The absorbance was recorded on a chart recorder with 2 absorbance units causing 100% pen deflection.
Dissolution studies were carried out for a period of 30 minutes with a flow rate of 11 mL per minute. Average absorbance values over 2 minute periods were calculated. […]

[2] = cited from earlier work
[3] = Saline saturated with TA (filter validation stock); type: physicochemical
Method: Solutions at 1% and 10% of saturation were prepared from a stock of saline saturated with TA (15 μg/mL). The solutions were filtered through a syringe filter and aliquots (200 μL) of the filtrate were collected. […] Consequently, an 800 μL prefiltration volume (see dissolution method above) was assumed sufficient to ensure that the filtrate concentration was representative of the dissolved TA concentration in the dissolution vessel.

[4] = test system: clinically significant macular edema; settings: intravitreal injection of the usual dose (4 mg); cited from earlier work
[5] = Equilibrium solubility of triamcinolone acetonide in various media (HPLC); type: physicochemical; settings: thermodynamic from solid, read-out: Triamcinolone acetonide conc. (equilibrium solubility)
Text: An HPLC assay method was developed for TA. This was used to determine the equilibrium solubility for TA in various media. It was considered that a solution of acetonitrile may be advantageous for the maintenance of sink conditions, wherein a large surplus of solvent/absorbant/carrier capacity is maintained.

CC1(C)O[C@@H]2CC3C4CCC5=CC(=O)C=CC5(C)[C@@]4(F)C(O)CC3(C)C2(C(=O)CO)O1 (stereo partly shown) [triamcinolone acetonide, 9-fluoro-11,21-dihydroxy-16,17-[1-methylethylidinebis(oxy)]pregna-1,4-diene-3,20-dione]
solubility of TA in the solvent solution relative to TA in water alone [1]: 2-3 times
persistence at measurable concentrations in the vitreous humour ([2]; patients who have not undergone vitrectomy, assuming five half-lives): 93 ± 28 days
mean elimination half-life ([2]; single intravitreal injection, nonvitrectomized patients): 18.6 days
concentration of saline saturated with TA [3]: 15000 ng/mL
time after which beneficial effects are diminished [4]: approximately three
solubility thermodynamic ([5]; 5% Acetonide, aqueous with cosolvent or surfactant or cyclodextrin): 5.2 µg/mL (≈ 12 µM)
solubility thermodynamic ([5]; 10% Acetonide, aqueous with cosolvent or surfactant or cyclodextrin): 9.1 µg/mL (≈ 20.9 µM)
solubility thermodynamic ([5]; 30% Acetonide, aqueous with cosolvent or surfactant or cyclodextrin): 128 µg/mL (≈ 295 µM)
solubility thermodynamic ([5]; distilled water, water): 8.8 µg/mL (≈ 20.3 µM)
solubility thermodynamic ([5]; normal saline, saline or isotonic): 8.2 µg/mL (≈ 18.9 µM)
